# Source: patent publication US7517867B2, “Topoisomerase-targeting agents” (Rutgers, The State University of New Jersey, priority 2002, dated 2009)
row,melting point,SMILES
1,212 to 214 °C,COc1cc2c(cc1OC)C(CC#N)Cc1c-2cnc2cc3c(cc12)OCO3 (centres unmarked) [Compound 209]
2,231 to 233 °C,COc1cc2c(cc1OC)C(CO)Cc1c-2cnc2cc3c(cc12)OCO3 (centres unmarked) [Compound 208]
